Assay results reported in PubChem BioAssay (NCI).
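In this assay, cells in 96-well plates receive the compound at five concentrations for 48 hours. Endpoints are linearly interpolated between the surrounding concentrations. TGI marks complete inhibition of growth.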

Experiments:
Assay in all cases: NCI tumour cell line growth inhibition, 48 h
[1] = test system: SF-295 CNS
[2] = test system: SF-539 CNS
[3] = test system: M19-MEL melanoma
[4] = test system: UO-31 renal
[5] = test system: HCT-15 colon
[6] = test system: OVCAR-4 ovarian
[7] = test system: OVCAR-3 ovarian
[8] = test system: KM12 colon
[9] = test system: OVCAR-5 ovarian
[10] = test system: NCI-H226 lung
[11] = test system: KM20L2 colon
[12] = test system: LXFL 529 NSCLC
[13] = test system: UACC-257 melanoma
[14] = test system: U251 CNS
[15] = test system: MALME-3M melanoma
[16] = test system: MOLT-4 leukemia
[17] = test system: SK-MEL-5 melanoma
[18] = test system: OVCAR-8 ovarian
[19] = test system: RPMI-8226 leukemia
[20] = test system: SNB-75 CNS
[21] = test system: SK-MEL-28 melanoma
[22] = test system: A498 renal
[23] = test system: SNB-78 CNS
[24] = test system: SN12C renal
[25] = test system: SW-620 colon
[26] = test system: NCI-H522 lung
[27] = test system: IGROV1 ovarian
[28] = test system: RXF 393 renal
[29] = test system: M14 melanoma
[30] = test system: HOP-92 NSCLC
[31] = test system: HCC-2998 colon
[32] = test system: K-562 leukemia
[33] = test system: 786-0 renal
[34] = test system: HOP-62 NSCLC
[35] = test system: COLO 205 colon
[36] = test system: SF-268 CNS
[37] = test system: CAKI-1 renal
[38] = test system: HCT-116 colon
[39] = test system: A549 NSCLC
[40] = test system: ACHN renal
[41] = test system: HT29 colon
[42] = test system: DLD-1 colon
[43] = test system: SNB-19 CNS
[44] = test system: SK-MEL-2 melanoma
[45] = test system: UACC-62 melanoma
[46] = test system: XF 498 CNS
[47] = test system: DMS 114 small cell lung
[48] = test system: RXF-631 renal
[49] = test system: SK-OV-3 ovarian
[50] = test system: CCRF-CEM leukemia
[51] = test system: NCI-H460 lung
[52] = test system: DMS 273 small cell lung
[53] = test system: LOX IMVI melanoma
[54] = test system: TK-10 renal
[55] = test system: EKVX NSCLC
[56] = test system: NCI-H23 lung
[57] = test system: HOP-18 NSCLC
[58] = test system: HL-60(TB) leukemia
[59] = test system: SR leukemia

CC(=O)NC(CCCNCc1ccccc1)C(=O)NCc1ccccc1 (stereo unspecified)
TGI [1]: > 100 µM | TGI [2]: > 100 µM | TGI [3]: > 100 µM | TGI [4]: > 100 µM | TGI [5]: > 100 µM | TGI [6]: > 100 µM | TGI [7]: > 100 µM | TGI [8]: > 100 µM | TGI [9]: > 100 µM | TGI [10]: > 100 µM | TGI [11]: > 100 µM | TGI [12]: > 100 µM | TGI [13]: > 100 µM | TGI [14]: > 100 µM | TGI [15]: > 100 µM | TGI [16]: > 100 µM | TGI [17]: > 100 µM | TGI [18]: > 100 µM | TGI [19]: > 100 µM | TGI [20]: > 100 µM | TGI [21]: > 100 µM | TGI [22]: > 100 µM | TGI [23]: > 100 µM | TGI [24]: > 100 µM | TGI [25]: > 100 µM | TGI [26]: > 100 µM | TGI [27]: > 100 µM | TGI [28]: > 100 µM | TGI [29]: > 100 µM | TGI [30]: > 100 µM | TGI [31]: > 100 µM | TGI [32]: > 100 µM | TGI [33]: > 100 µM | TGI [34]: > 100 µM | TGI [35]: > 100 µM | TGI [36]: > 100 µM | TGI [37]: > 100 µM | TGI [38]: > 100 µM | TGI [39]: > 100 µM | TGI [40]: > 100 µM | TGI [41]: > 100 µM | TGI [42]: > 100 µM | TGI [43]: > 100 µM | TGI [44]: > 100 µM | TGI [45]: > 100 µM | TGI [46]: > 100 µM | TGI [47]: > 100 µM | TGI [48]: > 100 µM | TGI [49]: > 100 µM | TGI [50]: > 100 µM | TGI [51]: > 100 µM | TGI [52]: > 100 µM | TGI [53]: > 100 µM | TGI [54]: > 100 µM | TGI [55]: > 100 µM | TGI [56]: > 100 µM

CCC(=O)OC[n+]1ccc2c(C)c3[nH]c4ccc(OC)cc4c3c(C)c2c1
TGI [3]: 1.68 µM | TGI [9]: 1.75 µM | TGI [12]: 1.57 µM | TGI [15]: 2.71 µM | TGI [19]: 2.54 µM | TGI [27]: 1.03 µM | TGI [57]: 0.131 µM | TGI [32]: 23.9 µM | TGI [33]: 1.73 µM | TGI [38]: 1.13 µM | TGI [40]: 3.76 µM | TGI [41]: 1.57 µM | TGI [42]: 1.26 µM | TGI [50]: > 100 µM | TGI [54]: 2.92 µM | TGI [58]: 8.38 µM

COc1ccccc1NC(=O)C1=C(C)NC(C)=C(C(=O)Nc2ccccc2OC)C1c1ccccc1F
TGI [1]: > 100 µM | TGI [2]: > 100 µM | TGI [4]: > 100 µM | TGI [5]: > 100 µM | TGI [6]: > 100 µM | TGI [7]: > 100 µM | TGI [8]: > 100 µM | TGI [9]: > 100 µM | TGI [10]: > 100 µM | TGI [11]: > 100 µM | TGI [12]: > 100 µM | TGI [13]: > 100 µM | TGI [14]: > 100 µM | TGI [15]: > 100 µM | TGI [16]: > 100 µM | TGI [17]: > 100 µM | TGI [18]: > 100 µM | TGI [19]: > 100 µM | TGI [20]: 62.4 µM | TGI [21]: > 100 µM | TGI [22]: > 100 µM | TGI [23]: > 100 µM | TGI [24]: > 100 µM | TGI [25]: > 100 µM | TGI [27]: > 100 µM | TGI [29]: > 100 µM | TGI [30]: > 100 µM | TGI [31]: > 100 µM | TGI [57]: > 100 µM | TGI [32]: > 100 µM | TGI [33]: > 100 µM | TGI [34]: > 100 µM | TGI [35]: > 100 µM | TGI [36]: > 100 µM | TGI [37]: > 100 µM | TGI [38]: > 100 µM | TGI [39]: > 100 µM | TGI [40]: > 100 µM | TGI [41]: > 100 µM | TGI [42]: > 100 µM | TGI [43]: > 100 µM | TGI [44]: > 100 µM | TGI [45]: > 100 µM | TGI [47]: > 100 µM | TGI [48]: > 100 µM | TGI [49]: > 100 µM | TGI [50]: > 100 µM | TGI [51]: > 100 µM | TGI [52]: > 100 µM | TGI [59]: > 100 µM | TGI [53]: > 100 µM | TGI [54]: > 100 µM | TGI [55]: > 100 µM | TGI [56]: > 100 µM | TGI [58]: > 100 µM

CNS(=O)(=O)NN(C)S(=O)(=O)c1ccc(F)cc1
TGI [1]: > 100 µM | TGI [2]: > 100 µM | TGI [4]: > 100 µM | TGI [5]: > 100 µM | TGI [6]: > 100 µM | TGI [7]: > 100 µM | TGI [8]: > 100 µM | TGI [9]: > 100 µM | TGI [10]: > 100 µM | TGI [11]: > 100 µM | TGI [12]: > 100 µM | TGI [13]: > 100 µM | TGI [14]: > 100 µM | TGI [15]: > 100 µM | TGI [16]: > 100 µM | TGI [17]: > 100 µM | TGI [18]: > 100 µM | TGI [19]: > 100 µM | TGI [20]: > 100 µM | TGI [21]: > 100 µM | TGI [22]: > 100 µM | TGI [24]: > 100 µM | TGI [25]: > 100 µM | TGI [26]: > 100 µM | TGI [27]: > 100 µM | TGI [28]: > 100 µM | TGI [29]: > 100 µM | TGI [30]: > 100 µM | TGI [31]: > 100 µM | TGI [57]: > 100 µM | TGI [32]: > 100 µM | TGI [33]: > 100 µM | TGI [34]: > 100 µM | TGI [35]: > 100 µM | TGI [36]: > 100 µM | TGI [37]: > 100 µM | TGI [38]: > 100 µM | TGI [39]: > 100 µM | TGI [40]: > 100 µM | TGI [41]: > 100 µM | TGI [42]: > 100 µM | TGI [43]: > 100 µM | TGI [44]: > 100 µM | TGI [45]: > 100 µM | TGI [46]: > 100 µM | TGI [47]: > 100 µM | TGI [49]: > 100 µM | TGI [50]: > 100 µM | TGI [51]: > 100 µM | TGI [52]: > 100 µM | TGI [53]: > 100 µM | TGI [54]: > 100 µM | TGI [55]: > 100 µM | TGI [56]: > 100 µM | TGI [58]: > 100 µM

COC(=O)CCC(NC(=S)N/N=C(\C)c1nccs1)C(=O)OC (stereo unspecified)
TGI [1]: > 100 µM | TGI [2]: > 100 µM | TGI [3]: > 100 µM | TGI [4]: > 100 µM | TGI [5]: > 100 µM | TGI [6]: > 100 µM | TGI [7]: > 100 µM | TGI [8]: > 100 µM | TGI [9]: > 100 µM | TGI [10]: > 100 µM | TGI [11]: > 100 µM | TGI [12]: > 100 µM | TGI [13]: > 100 µM | TGI [14]: > 100 µM | TGI [15]: > 100 µM | TGI [17]: > 100 µM | TGI [18]: > 100 µM | TGI [19]: > 100 µM | TGI [20]: > 100 µM | TGI [21]: > 100 µM | TGI [22]: > 100 µM | TGI [23]: > 100 µM | TGI [24]: > 100 µM | TGI [25]: > 100 µM | TGI [26]: 78.4 µM | TGI [27]: > 100 µM | TGI [28]: > 100 µM | TGI [29]: > 100 µM | TGI [30]: > 100 µM | TGI [31]: > 100 µM | TGI [57]: > 100 µM | TGI [32]: > 100 µM | TGI [33]: > 100 µM | TGI [34]: > 100 µM | TGI [35]: 34.1 µM | TGI [36]: > 100 µM | TGI [38]: > 100 µM | TGI [39]: > 100 µM | TGI [40]: > 100 µM | TGI [41]: > 100 µM | TGI [42]: > 100 µM | TGI [43]: > 100 µM | TGI [44]: > 100 µM | TGI [45]: > 100 µM | TGI [46]: > 100 µM | TGI [47]: 57.5 µM | TGI [48]: > 100 µM | TGI [49]: > 100 µM | TGI [51]: > 100 µM | TGI [53]: > 100 µM | TGI [54]: > 100 µM | TGI [55]: > 100 µM | TGI [56]: > 100 µM | TGI [58]: 47.5 µM
